According to ChEMBL document CHEMBL1124450, “Identification of structural requirements for analogues of atrial natriuretic peptide (ANP) to discriminate between ANP receptor subtypes” (J Med Chem, 1989):
Residues, ends and D or L forms follow the SMILES beside them.

How the values were obtained:
[1] = molecular target: T1, Atrial natriuretic peptide receptor (Homo sapiens, UniProt P20594+P16066+P17342); test: Inhibitory activity against guanylate cyclase coupled receptor binding site in rabbit lung by using [125I]-ANP-(103-126); format: protein assay, Oryctolagus cuniculus; conditions: target entry is the homologue from another species
T1 sequence (P20594 whole entry): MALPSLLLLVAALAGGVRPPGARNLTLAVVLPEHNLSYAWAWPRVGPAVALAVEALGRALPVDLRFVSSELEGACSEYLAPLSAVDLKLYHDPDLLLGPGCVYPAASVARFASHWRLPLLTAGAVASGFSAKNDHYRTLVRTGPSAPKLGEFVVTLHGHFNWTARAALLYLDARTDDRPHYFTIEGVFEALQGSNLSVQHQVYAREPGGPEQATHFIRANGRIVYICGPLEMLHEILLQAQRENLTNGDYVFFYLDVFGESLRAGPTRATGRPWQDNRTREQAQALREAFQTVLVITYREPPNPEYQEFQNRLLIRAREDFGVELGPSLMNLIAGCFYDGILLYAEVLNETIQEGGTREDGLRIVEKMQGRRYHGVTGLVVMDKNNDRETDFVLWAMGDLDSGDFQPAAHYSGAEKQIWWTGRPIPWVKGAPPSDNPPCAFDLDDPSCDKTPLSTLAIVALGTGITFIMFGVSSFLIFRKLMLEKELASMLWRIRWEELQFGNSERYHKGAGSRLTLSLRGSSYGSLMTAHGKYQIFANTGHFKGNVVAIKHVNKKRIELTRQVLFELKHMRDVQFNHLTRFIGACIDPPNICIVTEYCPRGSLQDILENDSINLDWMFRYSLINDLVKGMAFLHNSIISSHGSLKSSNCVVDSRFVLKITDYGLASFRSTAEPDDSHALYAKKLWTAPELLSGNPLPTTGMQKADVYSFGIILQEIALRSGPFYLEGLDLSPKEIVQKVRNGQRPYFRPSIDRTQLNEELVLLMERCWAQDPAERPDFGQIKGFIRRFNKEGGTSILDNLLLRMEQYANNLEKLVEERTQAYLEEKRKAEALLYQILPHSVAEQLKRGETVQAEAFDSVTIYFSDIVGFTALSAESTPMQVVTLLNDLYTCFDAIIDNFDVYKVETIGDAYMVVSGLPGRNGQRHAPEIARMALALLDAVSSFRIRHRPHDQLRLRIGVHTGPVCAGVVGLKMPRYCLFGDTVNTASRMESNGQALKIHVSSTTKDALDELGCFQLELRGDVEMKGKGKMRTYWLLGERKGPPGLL
T1 sequence (P16066 whole entry): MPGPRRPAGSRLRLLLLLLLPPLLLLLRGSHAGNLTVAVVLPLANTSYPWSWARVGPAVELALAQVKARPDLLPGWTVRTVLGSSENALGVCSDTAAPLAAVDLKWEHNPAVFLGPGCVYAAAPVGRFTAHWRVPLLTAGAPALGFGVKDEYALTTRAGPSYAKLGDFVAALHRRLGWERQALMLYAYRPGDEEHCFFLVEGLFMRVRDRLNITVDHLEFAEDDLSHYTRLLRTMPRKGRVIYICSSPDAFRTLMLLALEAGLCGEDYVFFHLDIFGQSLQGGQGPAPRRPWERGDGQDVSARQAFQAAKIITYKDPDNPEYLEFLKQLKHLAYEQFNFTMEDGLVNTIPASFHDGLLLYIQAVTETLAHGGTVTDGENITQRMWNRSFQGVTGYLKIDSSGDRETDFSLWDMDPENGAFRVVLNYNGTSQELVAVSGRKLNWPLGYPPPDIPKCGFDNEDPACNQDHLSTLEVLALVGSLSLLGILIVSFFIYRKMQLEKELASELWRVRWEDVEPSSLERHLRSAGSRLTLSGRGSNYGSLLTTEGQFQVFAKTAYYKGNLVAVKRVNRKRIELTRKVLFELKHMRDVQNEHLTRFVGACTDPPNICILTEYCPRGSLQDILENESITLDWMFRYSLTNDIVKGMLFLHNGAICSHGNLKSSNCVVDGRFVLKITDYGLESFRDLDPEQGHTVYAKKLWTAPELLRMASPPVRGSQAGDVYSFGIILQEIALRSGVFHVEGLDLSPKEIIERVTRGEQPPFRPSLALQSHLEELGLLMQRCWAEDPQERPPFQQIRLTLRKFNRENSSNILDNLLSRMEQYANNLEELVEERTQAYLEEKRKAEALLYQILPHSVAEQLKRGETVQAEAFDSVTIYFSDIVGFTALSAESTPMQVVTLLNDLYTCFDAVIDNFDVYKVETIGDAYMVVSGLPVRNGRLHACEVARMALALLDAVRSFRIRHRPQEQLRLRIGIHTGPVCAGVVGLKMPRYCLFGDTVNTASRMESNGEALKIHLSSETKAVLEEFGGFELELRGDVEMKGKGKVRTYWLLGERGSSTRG
T1 sequence (P17342 whole entry): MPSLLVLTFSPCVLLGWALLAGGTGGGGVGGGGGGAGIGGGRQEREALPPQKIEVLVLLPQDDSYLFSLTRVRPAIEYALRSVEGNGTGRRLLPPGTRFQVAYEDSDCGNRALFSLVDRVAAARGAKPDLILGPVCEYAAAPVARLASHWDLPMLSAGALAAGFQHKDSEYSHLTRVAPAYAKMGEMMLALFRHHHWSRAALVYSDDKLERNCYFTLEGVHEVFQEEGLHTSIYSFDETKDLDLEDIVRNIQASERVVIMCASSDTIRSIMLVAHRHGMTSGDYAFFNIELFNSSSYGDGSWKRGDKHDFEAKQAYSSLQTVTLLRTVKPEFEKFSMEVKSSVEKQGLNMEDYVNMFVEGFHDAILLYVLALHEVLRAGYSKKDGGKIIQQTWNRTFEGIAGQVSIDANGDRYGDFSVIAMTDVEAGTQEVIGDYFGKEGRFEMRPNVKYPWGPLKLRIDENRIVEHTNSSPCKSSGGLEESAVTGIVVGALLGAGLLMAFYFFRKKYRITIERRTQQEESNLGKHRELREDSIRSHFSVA

[2] = Inhibitory activity against non-guanylate cyclase receptor binding site in rabbit lung by using [125I]-ANP-(103-126); set-up: species or system Oryctolagus cuniculus
[3] = Ratio of IC50 of guanylate cyclase coupled receptor binding and non-guanylate cyclase coupled binding

Row | Compound | IC50 [1] [nM] | IC50 [2] [nM] | Ratio [3]
1 | CC[C@H](C)[C@H](NC(=O)[C@H](CCCN=C(N)N)NC(=O)[C@H](CC(=O)O)NC(=O)[C@@H](NC(=O)[C@H](CCCN=C(N)N)NC(=O)CNC(=O)CNC(=O)[C@H](Cc1ccccc1)NC(=O)[C@@H](N)CS)[C@@H](C)CC)C(=O)NCC(N)=O (H-CFGGRIDRIG-NH2) | > 100 | 0.28 | > 357
2 | CC[C@H](C)[C@H](NC(=O)[C@H](CCCN=C(N)N)NC(=O)[C@H](CC(=O)O)NC(=O)[C@@H](NC(=O)[C@H](CCCN=C(N)N)NC(=O)CNC(C)=O)[C@@H](C)CC)C(=O)NCC(N)=O [GRIDRIG] (Ac-GRIDRIG-NH2) | > 100 | 65 | > 1.5
3 | CC[C@H](C)[C@@H]1NC(=O)[C@H](CCCN=C(N)N)NC(=O)[C@H](CC(=O)O)NC(=O)[C@H]([C@@H](C)CC)NC(=O)[C@H](CCCN=C(N)N)NC(=O)CNC(=O)CNC(=O)[C@H](Cc2ccccc2)NC(=O)[C@@H](NC(=O)[C@H](CO)NC(=O)[C@H](CO)NC(=O)[C@H](CCCN=C(N)N)NC(=O)[C@H](CCCN=C(N)N)NC(=O)[C@H](CC(C)C)NC(=O)[C@@H](N)CO)CSSC[C@@H](C(N)=O)NC(=O)[C@H](CCC(N)=O)NC(=O)[C@H](C)NC(=O)CNC1=O (HELM PEPTIDE1{S.L.R.R.S.S.C.F.G.G.R.I.D.R.I.G.A.Q.C.[am]}$PEPTIDE1,PEPTIDE1,7:R3-19:R3$$$V2.0) | 52 | 0.16 | 312
4 | CC[C@H](C)[C@@H]1NC(=O)[C@H](CCCN=C(N)N)NC(=O)[C@H](CC(=O)O)NC(=O)[C@H]([C@@H](C)CC)NC(=O)[C@H](CCCN=C(N)N)NC(=O)CNC(=O)[C@@H](NC(=O)[C@H](CO)NC(=O)[C@@H](N)CO)CSSC[C@H](C(=O)N[C@@H](CC(N)=O)C(=O)N[C@@H](CO)C(=O)N[C@@H](Cc2ccccc2)C(=O)N[C@@H](CCCN=C(N)N)C(N)=O)NC(=O)CNC(=O)[C@H](CC(C)C)NC(=O)CNC(=O)[C@H](CO)NC(=O)CNC1=O | > 100 | 0.1 | > 1000
5 | CC[C@H](C)[C@H](NC(=O)[C@H](CCCN=C(N)N)NC(=O)[C@H](CC(=O)O)NC(=O)[C@@H](NC(=O)[C@H](CCCN=C(N)N)NC(=O)CNC(=O)CNC(=O)[C@H](Cc1ccccc1)NC(=O)[C@@H](N)CO)[C@@H](C)CC)C(=O)NCC(=O)N[C@@H](C)C(=O)N[C@@H](CCC(N)=O)C(=O)N[C@@H](CO)C(=O)NCC(=O)N[C@@H](CC(C)C)C(=O)NCC(=O)N[C@@H](CC(N)=O)C(=O)N[C@@H](CO)C(=O)N[C@@H](Cc1ccccc1)C(=O)N[C@@H](CCCN=C(N)N)C(=O)N[C@@H](Cc1ccc(O)cc1)C(=O)O (H-SFGGRIDRIGAQSGLGNSFRY-OH) | > 100 | 0.35 | > 285
6 | CC[C@H](C)[C@@H]1NC(=O)[C@H](CCCN=C(N)N)NC(=O)[C@H](CC(=O)O)NC(=O)[C@H]([C@@H](C)CC)NC(=O)[C@H](CCCN=C(N)N)NC(=O)CNC(=O)CNC(=O)[C@H](Cc2ccccc2)NC(=O)[C@@H](NC(=O)[C@H](CO)NC(=O)[C@@H](N)CO)CSSC[C@@H](C(=O)N[C@@H](CC(N)=O)C(=O)N[C@@H](CO)C(=O)O)NC(=O)CNC(=O)[C@H](CC(C)C)NC(=O)CNC(=O)[C@H](CO)NC(=O)[C@H](CCC(N)=O)NC(=O)[C@H](C)NC(=O)CNC1=O (HELM PEPTIDE1{S.S.C.F.G.G.R.I.D.R.I.G.A.Q.S.G.L.G.C.N.S}$PEPTIDE1,PEPTIDE1,3:R3-19:R3$$$V2.0) | 36 | 0.78 | 46
7 | CC(C)C[C@H](NC(=O)[C@@H](N)CO)C(=O)N[C@@H](CCCN=C(N)N)C(=O)N[C@@H](CCCN=C(N)N)C(=O)N[C@@H](CO)C(=O)N[C@@H](CO)C(=O)N[C@@H](CS)C(=O)N[C@@H](Cc1ccccc1)C(=O)NCC(=O)NCC(=O)N[C@@H](CCCN=C(N)N)C(=O)O (H-SLRRSSCFGGR-OH) | > 100 | > 100 | –
